Where a name gives a salt, the structure may show the parent alone.
Legend:
[1] = tested on: BRCA-1 silenced HeLa cells (HeLa shBRCA1-GFP); experiment: Proliferation assay in BRCA-1 silenced HeLa cells; assay type: cell-based; conditions: Homo sapiens; BRCA1 silenced HeLa cells, 168 hours; read-out: CC50 in the BRCA1 silenced HeLa cells
Summary of the method: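 Antiproliferative effect was read by Celltiter Blue fluorescence after 168 h of compound treatment at 37° C., 5% CO2. Cells were matched HeLa pairs, BRCA1-shRNA (>80% silenced, GFP) versus non-shRNA vector control, in DMEM with 10% FCS.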

PARP-1 = target: T1, PARP-1 (Homo sapiens, UniProt P09874); experiment: PARP-1 SPA assay; assay type: biochemical
T1 construct: purchased Trevigen 4668-500-01
T1 sequence (P09874 whole entry): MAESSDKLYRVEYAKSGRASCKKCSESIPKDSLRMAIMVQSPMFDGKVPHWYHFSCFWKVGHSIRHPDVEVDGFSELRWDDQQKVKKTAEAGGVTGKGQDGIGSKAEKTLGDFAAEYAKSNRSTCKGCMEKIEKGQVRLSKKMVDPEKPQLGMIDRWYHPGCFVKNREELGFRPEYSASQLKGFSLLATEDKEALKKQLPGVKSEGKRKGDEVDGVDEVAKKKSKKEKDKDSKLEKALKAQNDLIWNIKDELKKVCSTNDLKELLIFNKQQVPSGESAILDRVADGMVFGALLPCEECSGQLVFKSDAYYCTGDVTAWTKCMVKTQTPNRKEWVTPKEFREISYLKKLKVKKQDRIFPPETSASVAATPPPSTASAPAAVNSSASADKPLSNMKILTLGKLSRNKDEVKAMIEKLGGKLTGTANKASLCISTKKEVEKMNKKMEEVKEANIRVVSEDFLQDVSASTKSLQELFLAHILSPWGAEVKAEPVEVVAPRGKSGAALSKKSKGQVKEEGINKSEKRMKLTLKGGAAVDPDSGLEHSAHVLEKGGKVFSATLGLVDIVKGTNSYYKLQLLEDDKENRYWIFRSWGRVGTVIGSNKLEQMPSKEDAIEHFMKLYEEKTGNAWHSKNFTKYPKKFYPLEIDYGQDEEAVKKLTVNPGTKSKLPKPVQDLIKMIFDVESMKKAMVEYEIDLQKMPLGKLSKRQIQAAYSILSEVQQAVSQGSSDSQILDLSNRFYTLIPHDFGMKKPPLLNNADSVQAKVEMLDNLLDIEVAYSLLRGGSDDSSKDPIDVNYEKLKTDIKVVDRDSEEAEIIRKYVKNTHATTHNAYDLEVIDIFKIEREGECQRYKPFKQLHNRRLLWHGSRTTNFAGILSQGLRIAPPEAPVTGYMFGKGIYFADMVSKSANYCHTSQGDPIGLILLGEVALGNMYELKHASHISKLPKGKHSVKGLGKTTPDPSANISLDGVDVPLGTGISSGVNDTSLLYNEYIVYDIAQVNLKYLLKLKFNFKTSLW
Procedure: Assay buffer: 100 mM Tris pH 8, 4 mM MgCl2, 4 mM Spermine, 200 mM KCl, 0.04% Nonidet P-40.
Nicotinamide-adenine dinucleotide (NAD)/DNA Mix: [^3H-NAD] (250 uCi/ml, 0.4 ul, Perkin-Elmer NET-443H), NAD (1.5 mM, 0.05 ul, SIGMA N-1511), Biotinylated-NAD (250 uM, 0.03 ul, Trevigen 4670-500-01), Activated calf thymus (1 mg/ml, 0.05 ul, Amersham Biosciences 27-4575), H2O (to 10 ul).
Developing Mix: Streptavidin SPA beads (5 mg/ml, Amersham Biosciences RPNQ 0007) dissolved in 500 mM EDTA.
The reaction is performed in 96-well microplate with a final volume of 50 uL/well. Add 5 ul 5% DMSO/compound solution, add enzyme mix (35 ul), start the reaction by adding NAD/DNA mix (10 uL) and incubate for 2 hrs at RT. Stop the reaction by adding developing mix (25 ul) and incubate 15 min at RT. Measure using a Packard TOP COUNT instrument.

| SMILES | CC50 [1] | IC50 (PARP-1) |
| --- | --- | --- |
| C[C@@H]1CN(C(=O)c2cc(Cc3cc(C(F)(F)F)c(=O)[nH]n3)ccc2F)CC(=O)N1C1CCCC1 [Example 151, 6-(3-{[(3R)-4-cyclopentyl-3-methyl-5-oxopiperazin-1-yl]carbonyl}-4-fluorobenzyl)-4-(trifluoromethyl)pyridazin-3(2H)-one] | < 50 nM | 5 to 25 nM |
| CCc1cc(Cc2ccc(F)c(C(=O)N3CCN(C4CCCOC4)C(=O)C3)c2)n[nH]c1=O (stereo not drawn) [Example 133, 4-ethyl-6-(4-fluoro-3-{[3-oxo-4-(tetrahydro-2H-pyran-3-yl)piperazin-1-yl]carbonyl}benzyl)-3-oxo-2,3-dihydropyridazin-1-ium trifluoroacetate] | 50 to 500 nM | 5 to 25 nM |
| Cc1c(Cc2ccc(F)c(C(=O)N3CCN(c4ccc(F)cc4)C(=O)C3)c2)n[nH]c(=O)c1C [Example 40, 6-(4-Fluoro-3-{[4-(4-fluorophenyl)-3-oxopiperazin-1-yl]carbonyl}benzyl)-4,5-dimethyl-3-oxo-2,3-dihydropyridazin-1-ium trifluoroacetate] | 50 to 500 nM | 5 to 25 nM |
| Cc1c(Cc2ccc(F)c(C(=O)N3CCN(C4CCC(F)(F)CC4)C(=O)C3)c2)n[nH]c(=O)c1C [Example 48, 6-(3-{[4-(4,4-Difluorocyclohexyl)-3-oxopiperazin-1-yl]carbonyl}-4-fluorobenzyl)-4,5-dimethyl-3-oxo-2,3-dihydropyridazin-1-ium trifluoroacetate] | 50 to 500 nM | 5 to 25 nM |
| CCc1cc(Cc2ccc(F)c(C(=O)N3CCN(CC(F)(F)F)C(=O)C3)c2)n[nH]c1=O [Example 134, 4-ethyl-6-(4-fluoro-3-{[3-oxo-4-(2,2,2-trifluoroethyl)piperazin-1-yl]carbonyl}benzyl)-3-oxo-2,3-dihydropyridazin-1-ium trifluoroacetate] | < 5000 nM | 5 to 25 nM |
| Cc1c(Cc2ccc(F)c(C(=O)N3CCN(CC(F)(F)F)C(=O)C3)c2)n[nH]c(=O)c1C [Example 72, 6-(4-Fluoro-3-{[3-oxo-4-(2,2,2-trifluoroethyl)piperazin-1-yl]carbonyl}benzyl)-4,5-dimethyl-3-oxo-2,3-dihydropyridazin-1-ium trifluoroacetate] | 50 to 500 nM | 5 to 25 nM |
| Cc1c(Cc2ccc(F)c(C(=O)N3CC(=O)N(C4CCCC4)[C@H](C(C)C)C3)c2)n[nH]c(=O)c1C [Example 207, 6-(3-{[(3R)-4-Cyclopentyl-3-isopropyl-5-oxopiperazin-1-yl]carbonyl}-4-fluorobenzyl)-4,5-dimethylpyridazin-3(2H)-one] | < 5000 nM | 5 to 25 nM |
| Cc1c(Cc2ccc(F)c(C(=O)N3CCN(C4CCCCCC4)C(=O)C3)c2)n[nH]c(=O)c1C [Example 73, 6-{3-[(4-Cycloheptyl-3-oxopiperazin-1-yl)carbonyl]-4-fluorobenzyl}-4,5-dimethyl-3-oxo-2,3-dihydropyridazin-1-ium trifluoroacetate] | < 50 nM | < 5 nM |
| Cc1c(Cc2ccc(F)c(C(=O)N3CC(=O)N(C4CCCC4)[C@@H](C)C3)c2)n[nH]c(=O)c1C [Example 114, 6-(3-{[(3S)-4-cyclopentyl-3-methyl-5-oxopiperazin-1-yl]carbonyl}-4-fluorobenzyl)-4,5-dimethylpyridazin-3(2H)-one] | < 50 nM | 5 to 25 nM |
| Cc1c(Cc2ccc(F)c(C(=O)N3CCN(C45CC(C4)C5)C(=O)C3)c2)n[nH]c(=O)c1C [Example 52, 6-{3-[(4-Bicyclo[1.1.1]pent-1-yl-3-oxopiperazin-1-yl)carbonyl]-4-fluorobenzyl}-4,5-dimethyl-3-oxo-2,3-dihydropyridazin-1-ium trifluoroacetate] | 50 to 500 nM | 5 to 25 nM |
| Cc1c(Cc2ccc(F)c(C(=O)N3CC(=O)N(CC(F)(F)F)C(C)C3)c2)n[nH]c(=O)c1C (stereo not drawn) [Example 139, 6-(4-fluoro-3-{[3-methyl-5-oxo-4-(2,2,2-trifluoroethyl)piperazin-1-yl]carbonyl}benzyl)-4,5-dimethyl-3-oxo-2,3-dihydropyridazin-1-ium trifluoroacetate] | 50 to 500 nM | 5 to 25 nM |
| Cc1c(Cc2ccc(F)c(C(=O)N3CC(=O)N4CCOCC4C3)c2)n[nH]c(=O)c1C(F)(F)F (stereo not drawn) [Example 136, 3-{4-Fluoro-3-[(6-oxohexahydropyrazino[2,1-c][1,4]oxazin-8(1H)-yl)carbonyl]benzyl}-4-methyl-6-oxo-5-(trifluoromethyl)-1,6-dihydropyridazin-1-ium trifluoroacetate] | 50 to 500 nM | < 5 nM |
| Cc1c(Cc2ccc(F)c(C(=O)N3CCN(C4CCCCC4)C(=O)C3C)c2)n[nH]c(=O)c1C (stereo not drawn) [Example 35, 6-{3-[(4-Cyclohexyl-2-methyl-3-oxopiperazin-1-yl)carbonyl]-4-fluorobenzyl}-4,5-dimethyl-3-oxo-2,3-dihydropyridazin-1-ium trifluoroacetate] | < 5000 nM | 5 to 25 nM |
| Cc1c(Cc2ccc(F)c(C(=O)N3CCN(CC4(C)CCCO4)C(=O)C3)c2)n[nH]c(=O)c1C (stereo not drawn) [Example 97, 6-[4-fluoro-3-({4-[(2-methyltetrahydrofuran-2-yl)methyl]-3-oxopiperazin-1-yl}carbonyl)benzyl]-4,5-dimethyl-3-oxo-2,3-dihydropyridazin-1-ium trifluoroacetate] | < 5000 nM | 5 to 25 nM |
| Cc1c(Cc2ccc(F)c(C(=O)N3CCN(C4CCCOC4)C(=O)C3)c2)n[nH]c(=O)c1C(F)(F)F (stereo not drawn) [Example 141, 3-(4-Fluoro-3-{[3-oxo-4-(tetrahydro-2H-pyran-3-yl)piperazin-1-yl]carbonyl}benzyl)-4-methyl-6-oxo-5-(trifluoromethyl)-1,6-dihydropyridazin-1-ium trifluoroacetate] | < 50 nM | 5 to 25 nM |
| Cc1c(Cc2ccc(F)c(C(=O)N3CCN(c4ccccn4)C(=O)C3)c2)n[nH]c(=O)c1C [Example 31, 3-{4-Fluoro-3-[(3-oxo-4-pyridin-2-ylpiperazin-1-yl)carbonyl]benzyl}-4,5-dimethyl-6-oxo-1,6-dihydropyridazin-1-ium trifluoroacetate] | < 5000 nM | 5 to 25 nM |
| Cc1c(Cc2ccc(F)c(C(=O)N3CC(=O)N(c4ccccc4)C(C)C3)c2)n[nH]c(=O)c1C (racemic) [Example 78 (LL4), 3-[4-Fluoro-3-(3-methyl-5-oxo-4-phenyl-piperazine-1-carbonyl)-benzyl]-4,5-dimethyl-6-oxo-1,6-dihydro-pyridazin-1-ium trifluoroacetate] | < 50 nM | < 5 nM |
| O=C(c1cc(Cc2cc(C(F)(F)F)c(=O)[nH]n2)ccc1F)N1CC(=O)N2CCCC[C@@H]2C1 (single isomer, unassigned) [92 (ZZ2)] | 50 to 500 nM | 5 to 25 nM |
| Cc1c(Cc2ccc(F)c(C(=O)N3CCN(C(c4cccnc4)C(F)F)C(=O)C3)c2)n[nH]c(=O)c1C (stereo not drawn) [Example 96, 6-(3-{[4-(2,2-difluoro-1-pyridin-3-ylethyl)-3-oxopiperazin-1-yl]carbonyl}-4-fluorobenzyl)-4,5-dimethyl-3-oxo-2,3-dihydropyridazin-1-ium trifluoroacetate] | < 5000 nM | 5 to 25 nM |
| Cc1c(Cc2ccc(F)c(C(=O)N3CC(=O)N(C4C[C@H]5CC[C@@H]4C5)C(C)C3)c2)n[nH]c(=O)c1C (stereo partly drawn) [Example 140, 6-[3-({4-[(1R,4S)-bicyclo[2.2.1]hept-2-yl]-3-methyl-5-oxopiperazin-1-yl}carbonyl)-4-fluorobenzyl]-4,5-dimethyl-3-oxo-2,3-dihydropyridazin-1-ium trifluoroacetate] | < 50 nM | 5 to 25 nM |
| Cc1c(Cc2ccc(F)c(C(=O)N3CCN(c4ccc(C#N)cc4)C(=O)C3)c2)n[nH]c(=O)c1C [Example 94, 3-(3-{[4-(4-Cyanophenyl)-3-oxopiperazin-1-yl]carbonyl}-4-fluorobenzyl)-4,5-dimethyl-6-oxo-1,6-dihydropyridazin-1-ium trifluoroacetate] | 50 to 500 nM | < 5 nM |
| Cc1c(Cc2ccc(F)c(C(=O)N3CCN(C4CCOCC4)C(=O)C3)c2)n[nH]c(=O)c1C(F)(F)F [Example 146, 3-(4-Fluoro-3-{[3-oxo-4-(tetrahydro-2H-pyran-4-yl)piperazin-1-yl]carbonyl}benzyl)-4-methyl-6-oxo-5-(trifluoromethyl)-1,6-dihydropyridazin-1-ium trifluoroacetate] | < 50 nM | 5 to 25 nM |
| Cc1c(Cc2ccc(F)c(C(=O)N3CC(=O)N(C4CCCCC4)C(C)C3)c2)n[nH]c(=O)c1C (stereo not drawn) [Example 125, 3-{3-[(4-Cyclohexyl-3-methyl-5-oxopiperazin-1-yl)carbonyl]-4-fluorobenzyl}-4,5-dimethyl-6-oxo-1,6-dihydropyridazin-1-ium trifluoroacetate] | < 50 nM | 5 to 25 nM |
| Cc1c(Cc2ccc(F)c(C(=O)N3CCN([C@@H]4CCCC[C@H]4c4ccccc4)C(=O)C3)c2)n[nH]c(=O)c1C [Example 67, 6-[4-Fluoro-3-({3-oxo-4-[(1R,2S)-2-phenylcyclohexyl]piperazin-1-yl}carbonyl)benzyl]-4,5-dimethyl-3-oxo-2,3-dihydropyridazin-1-ium trifluoroacetate] | 50 to 500 nM | 5 to 25 nM |

Source: patent publication US8268827B2, “Pyridazinone derivatives as PARP inhibitors” (Istituto di Ricerche di Biologia Molecolare P. Angeletti …, priority 2007, dated 2012)
